Experimental data published in patent US10800772B2 (Gilead Sciences, Inc., priority 2016, dated 2020).
Read-outs that look alike come from different tables or passages of the source.

Legend:
[1] = tested on: HIV-IIIb IN T174I DE; assay: Antiviral assay in MT4 cells, HIV-IIIb IN T174I DE virus (from dose escalation passaging); type: cell-based, HIV-1
In short: (§1)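 Compounds were titrated as 3-fold serial dilutions at 10 concentrations, in quadruplicate, against 2000 MT4 cells/well that had been infected for 3 h with HIV-IIIb at 0.004 m.o.i. Viruses were wildtype or integrase T174I mutants from breakthrough selection or dose-escalation passaging; mock-infected cells were run in parallel. After 5 days' culture, EC50 was derived as 50% reduction of CellTiter-Glo luminescence, which reflects HIV-1 replication.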

[2] = tested on: HIV-IIIb IN T174I BT; assay: Antiviral assay in MT4 cells, HIV-IIIb IN T174I BT virus (from viral breakthrough); type: cell-based, HIV-1
In short: as §1

[3] = Hum MS stability (human microsomal stability half-life); settings: human microsomes
[4] = tested on: HIV-IIIb (wildtype); assay: Antiviral assay in MT4 cells, HIV-IIIb wildtype; type: cell-based, HIV-1; settings: read-out: WT EC50
In short: as §1

[5] = Human immunodeficiency virus 1, IIIB, MT4, 120 h, read-out: T174I DE EC50, MT4 cells, HIV-IIIb IN T174I DE (dose escalation), 5 days, CellTiter-Glo
[6] = Human immunodeficiency virus 1, IIIB, MT4, 120 h, read-out: T174I BT EC50, MT4 cells, HIV-IIIb IN T174I BT (viral breakthrough), 5 days, CellTiter-Glo
[7] = Human immunodeficiency virus 1, IIIB, MT4, 120 h
[8] = Human immunodeficiency virus 1, 120 h, MT4 cells, HIV-IIIb wildtype, 5 days, CellTiter-Glo
[9] = MT4 cells, HIV-IIIb IN T174I DE (dose escalation), 5 days, CellTiter-Glo, read-out: T174I DE EC50
[10] = MT4 cells, HIV-IIIb IN T174I BT (viral breakthrough), 5 days, CellTiter-Glo, read-out: T174I BT EC50
[11] = MT4 cells, HIV-IIIb wildtype, 5 days, CellTiter-Glo

Row | Molecule | EC50 [1, 5] [nM] | EC50 [2, 6] [nM] | half-life [3] [h] | EC50 [4, 7] [nM] | EC50 [4, 8] [nM] | EC50 [1, 9] [nM] | EC50 [2, 10] [nM] | EC50 [4, 11] [nM]
1 | COCCN1CCC(c2nn(C)c3ccc(-c4nc5cc(C)c([C@H](OC(C)(C)C)C(=O)O)c(-c6ccc(Cl)cc6)c5s4)cc23)C1 (single isomer, unassigned) [Compound 69] | 1150 | 972 | 5.72 | 5 |  |  |  | 
2 | Cc1cc2nc(-c3ccc4c(c3)c(C3CCN(C5CCOC5)CC3)nn4C)sc2c(-c2ccc(Cl)cc2)c1[C@H](OC(C)(C)C)C(=O)O (stereo in doubt) [Compound 26, (S)-2-(tert-butoxy)-2-(7-(4-chlorophenyl)-5-methyl-2-(1-methyl-3-(1-((S)-tetrahydrofuran-3-yl)piperidin-4-yl)-1H-indazol-5-yl)benzo[d]thiazol-6-yl)acetic Acid] | 270 | 129 | 4.68 | 4 |  |  |  | 
3 | Cc1cc2nc(-c3ccc4c(c3)c(C3CCN(C5CCOC5)CC3)nn4C)sc2c(-c2ccc(Cl)cc2)c1[C@H](OC(C)(C)C)C(=O)O (stereo in doubt) [Compound 27, (S)-2-(tert-butoxy)-2-(7-(4-chlorophenyl)-5-methyl-2-(1-methyl-3-(1-((R)-tetrahydrofuran-3-yl)piperidin-4-yl)-1H-indazol-5-yl)benzo[d]thiazol-6-yl)acetic Acid] | 245 | 154 | 4.17 | 4 |  |  |  | 
4 | Cc1cc2nc(-c3ccc4c(c3)c(C3CCN(C5COC5)CC3)nn4C)sc2c(-c2ccc(Cl)cc2)c1[C@H](OC(C)(C)C)C(=O)O [Compound 1, (S)-2-(tert-butoxy)-2-(7-(4-chlorophenyl)-5-methyl-2-(1-methyl-3-(1-(oxetan-3-yl)piperidin-4-yl)-1H-indazol-5-yl)benzo[d]thiazol-6-yl)acetic Acid] | 315 | 143 | 5.83 |  | 5 |  |  | 
5 | COC1CN(c2nn(C)c3ccc(-c4nc5cc(C)c([C@H](OC(C)(C)C)C(=O)O)c(-c6ccc(Cl)cc6)c5s4)cc23)C1 [Compound 2, (S)-2-(tert-butoxy)-2-(7-(4-chlorophenyl)-2-(3-(3-methoxyazetidin-1-yl)-1-methyl-1H-indazol-5-yl)-5-methylbenzo[d]thiazol-6-yl)acetic Acid] | 2580 | 1020 | 1.82 | 7 |  |  |  | 
6 | Cc1cc2nc(-c3ccc4c(c3)c(C3CCN(C(=O)[C@H]5CCCO5)CC3)nn4C)sc2c(-c2ccc(Cl)cc2)c1[C@H](OC(C)(C)C)C(=O)O [Compound 9, (S)-2-(tert-butoxy)-2-(7-(4-chlorophenyl)-5-methyl-2-(1-methyl-3-(1-((R)-tetrahydrofuran-2-carbonyl)piperidin-4-yl)-1H-indazol-5-yl)benzo[d]thiazol-6-yl)acetic Acid] | 511 | 237 | 4.17 | 9 |  |  |  | 
7 | Cc1cc2nc(-c3ccc4c(c3)c(C3CCN(C5CS(=O)(=O)C5)CC3)nn4C)sc2c(-c2ccc(Cl)cc2)c1[C@H](OC(C)(C)C)C(=O)O [Compound 10, (S)-2-(tert-butoxy)-2-(7-(4-chlorophenyl)-2-(3-(1-(1,1-dioxidothietan-3-yl)piperidin-4-yl)-1-methyl-1H-indazol-5-yl)-5-methylbenzo[d]thiazol-6-yl)acetic Acid] | 303 | 275 | 3.58 | 10 |  |  |  | 
8 | Cc1cc2nc(-c3ccc4c(n3)c(N3CCN(C5COC5)CC3)nn4C)sc2c(-c2ccc(Cl)cc2)c1[C@H](OC(C)(C)C)C(=O)O [Compound 15, (S)-2-(tert-butoxy)-2-(7-(4-chlorophenyl)-5-methyl-2-(1-methyl-3-(4-(oxetan-3-yl)piperazin-1-yl)-1H-pyrazolo[4,3-b]pyridin-5-yl)benzo[d]thiazol-6-yl)acetic Acid] | 3070 | 657 | 2.83 | 4 |  |  |  | 
9 | Cc1cc2nc(-c3cnc4c(c3)c(C3CCN(C5COC5)CC3)cn4C)sc2c(-c2ccc(Cl)cc2)c1[C@H](OC(C)(C)C)C(=O)O [Compound 17, (S)-2-(tert-butoxy)-2-(7-(4-chlorophenyl)-5-methyl-2-(1-methyl-3-(1-(oxetan-3-yl)piperidin-4-yl)-1H-pyrrolo[2,3-b]pyridin-5-yl)benzo[d]thiazol-6-yl)acetic Acid] | 786 | 238 | 4.7 | 8 |  |  |  | 
10 | Cc1cc2nc(-c3ccc4c(c3)c(C3CCOCC3)nn4C)sc2c(-c2ccc(Cl)cc2)c1[C@H](OC(C)(C)C)C(=O)O [Compound 19, (S)-2-(tert-butoxy)-2-(7-(4-chlorophenyl)-5-methyl-2-(1-methyl-3-(tetrahydro-2H-pyran-4-yl)-1H-indazol-5-yl)benzo[d]thiazol-6-yl)acetic Acid] | 2780 | 1170 | 4.15 | 12 |  |  |  | 
11 | [2H]C([2H])([2H])C(O[C@H](C(=O)O)c1c(C)cc2nc(-c3ccc4c(c3)c(C3CCN(C5COC5)CC3)nn4C)sc2c1-c1ccc(Cl)cc1)(C([2H])([2H])[2H])C([2H])([2H])[2H] [Compound 21, (S)-2-(7-(4-chlorophenyl)-5-methyl-2-(1-methyl-3-(1-(oxetan-3-yl)piperidin-4-yl)-1H-indazol-5-yl)benzo[d]thiazol-6-yl)-2-((2-(methyl-d3)propan-2-yl-1,1,1,3,3,3-d6)oxy)acetic Acid] | 239 | 124 | 3.3 |  | 4 |  |  | 
12 | Cc1cc2nc(-c3ccc4c(c3)c(C3CCN(S(C)(=O)=O)CC3)nn4C)sc2c(-c2ccc(Cl)cc2)c1[C@H](OC(C)(C)C)C(=O)O [Compound 25, (S)-2-(tert-butoxy)-2-(7-(4-chlorophenyl)-5-methyl-2-(1-methyl-3-(1-(methylsulfonyl)piperidin-4-yl)-1H-indazol-5-yl)benzo[d]thiazol-6-yl)acetic acid] | 806 | 404 | 4.25 | 10 |  |  |  | 
13 | Cc1cc2nc(-c3ccc4c(c3)c(C3CCOC3)nn4C)sc2c(-c2ccc(Cl)cc2)c1[C@H](OC(C)(C)C)C(=O)O (stereo partly drawn) [Compound 52, (2S)-2-(tert-butoxy)-2-(7-(4-chlorophenyl)-5-methyl-2-(1-methyl-3-(tetrahydrofuran-3-yl)-1H-indazol-5-yl)benzo[d]thiazol-6-yl)acetic acid] | 946 | 905 | 3.72 | 8 |  |  |  | 
14 | COCC(COC)N1CC(c2nn(C)c3ccc(-c4nc5cc(C)c([C@H](OC(C)(C)C)C(=O)O)c(-c6ccc(Cl)cc6)c5s4)cc23)C1 [Compound 61, (S)-2-(tert-butoxy)-2-(7-(4-chlorophenyl)-2-(3-(1-(1,3-dimethoxypropan-2-yl)azetidin-3-yl)-1-methyl-1H-indazol-5-yl)-5-methylbenzo[d]thiazol-6-yl)acetic acid] | 2700 | 1610 | 3.62 | 7 |  |  |  | 
15 | Cc1cc2nc(-c3ccc4c(c3)c(C3CCN(C5COC5)C3)nn4C)sc2c(-c2ccc(Cl)cc2)c1[C@H](OC(C)(C)C)C(=O)O (stereo partly drawn) [Compound 70, (2S)-2-(tert-butoxy)-2-(7-(4-chlorophenyl)-5-methyl-2-(1-methyl-3-(1-(oxetan-3-yl)pyrrolidin-3-yl)-1H-indazol-5-yl)benzo[d]thiazol-6-yl)acetic acid] | 942 | 587 | 5.87 | 7 |  |  |  | 
16 | COCCOC(=O)N1CCC(c2nn(C)c3ccc(-c4nc5cc(C)c([C@H](OC(C)(C)C)C(=O)O)c(-c6ccc(Cl)cc6)c5s4)cc23)C1 (stereo partly drawn) [Compound 73, (2S)-2-(tert-butoxy)-2-(7-(4-chlorophenyl)-2-(3-(1-((2-methoxyethoxy)carbonyl)pyrrolidin-3-yl)-1-methyl-1H-indazol-5-yl)-5-methylbenzo[d]thiazol-6-yl)acetic acid] | 823 | 720 | 3.05 | 6 |  |  |  | 
17 | CC(=O)N1CCC(c2nn(C)c3ccc(-c4nc5cc(C)c([C@H](OC(C)(C)C)C(=O)O)c(-c6ccc(Cl)cc6)c5s4)cc23)C1 (stereo partly drawn) [Compound 74, (2S)-2-(2-(3-(1-acetylpyrrolidin-3-yl)-1-methyl-1H-indazol-5-yl)-7-(4-chlorophenyl)-5-methylbenzo[d]thiazol-6-yl)-2-(tert-butoxy)acetic acid] | 587 | 349 | 3.32 | 10 |  |  |  | 
18 | (S)-2-(tert-butoxy)- 2-(7-(4-chloro- phenyl)-2-(3-(1-(2- (dimethylamino) ethyl)piperidin-4- yl)-1-methyl-1H- indazol-5-yl)-5- methylbenzo[d] thiazol-6-yl) acetic acid [Compound 130] |  |  |  |  |  | 232 | 122 | 12
19 | (S)-2-(tert-butoxy)- 2-(7-(4-chloro- phenyl)-2-(3-((R)- hexahydropyrazino [2,1-c][1,4]oxazin- 8(1H)-yl)-1-methyl- 1H-indazol-5-yl)- 5-methylbenzo[d] thiazol-6-yl)acetic acid [Compound 135] |  |  |  |  |  | 1060 | 399 | 10
